# Patent publication US20220264878A1, “HERBICIDAL COMPOSITION CONTAINING R-TYPE PYRIDYLOXY CARBOXYLIC ACID DERIVATIVE AND USE THEREOF” (Qingdao Kingagroot Chemical Compound Co., Ltd., priority 2019, published 2022)
# Where two headings read alike, the source gives them in different places.
# Key:
# Assay in all cases: Post-emergence foliage spray, pot culture, fresh weight inhibition (Tables 1-48, 51-98, 101-148; 24 days)
# Format in all cases: in vivo
# Chenopodium album = test system: Chenopodium album
# How it was run: (§1)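 Pot-grown weeds were thinned to 15 per pot (45 per treatment) and sprayed on foliage at the 5–6-leaf stage for grasses or the 6–7-leaf stage for broadleaves. Agents were dissolved in acetone with 0.1% Tween-80 and applied at 450 kg/ha spray volume and 0.3 MPa. Plants were then kept in a greenhouse. Above-ground fresh weight of survivors, with dead plants counted as zero, gave inhibition versus a solvent/emulsifier blank.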
# Acalypha australis = test system: Acalypha australis
# Text: Table 1-48, 51-98, 101-148: Echinochloa crusgalli var. zelayensis, Eclipta prostrate, Galium aparine L., Alopecurus aequalis, Alopecurus japonicus, Lindernia procumbens, Veronica persica^1, Malachium aquaticum, Beckmannia syzigachne, Stellaria media were collected in Huai'an of Jiangsu Province; Commelina communis, Sonchus arvensis, Setaria glauca, Chloris virgata, Setaria faberi, Sonchus oleraceus L., Echinochloa oryzoides, Cirsium setosum, Xanthium strumarium were collected in Qiqiha'er of Heilongjiang Province; Sinapis arvensis, Veronica persica^2 were collected in Zhumadian of Henan Province; Ludwigia prostrate, Ammannia arenaria were collected in Zhuji of Zhejiang Province; Amaranthus retrojlexus, Descurainia sophia, Digitaria sanguinalis, Setaria viridis, Conyza Canadensis, Capsella bursa-pastoris, Eleusine indica, Ipomoea purpurea, Abutilon theophrasti, Chenopodium album, Acalypha australis, Solanum nigrum were collected in Qingdao of Shandong Province; Echinochloa caudate were collected in Pingluo of Ningxia Province.
# The above weeds were cultivated by a pot culture method. […] Full and uniform weed seeds were selected, soaked in warm water at 25° C. for 6 hours, and germinated in a 28° C. biochemical incubator (darkness). The weed seeds that had just germinatedwere evenly placed on the surface of the soil and then covered with 0.5-1 cm soil according to the sizes of seeds.
# The culture was carried out in a controllable sunlight greenhouse at 20 to 30° C., in natural light, and relative humidity of 57% to 72%.
# The technical materials were all dissolved in acetone, and diluted with an aqueous solution containing 0.1% emulsifier Tween-80. The dilution is performed as required.
# A ratio of the active ingredient A to the active ingredient B and amounts thereof in each group depends on the characteristics and toxicity of the two agents, as well as the main application purpose of a corresponding formulation. Based on the pre-tests in this study, the dosage of the active ingredient A and B applied alone and in combination were shown in the tables. Water containing the solvent and emulsifier same with the above groups but free of the agents was used as a blank control.
# Table 1-48, 51-98, 101-148, 151-206: […] per treatment, that is, a total of 60 weeds were treated in one treatment.
# Table 1-48, 51-98, 101-148: The agents were used for only once in the experiment. In the stage of weeds with 3˜4 leaves, the weeds were thinned out to maintain 15 weeds per pot and 45 weeds for each treatment, then continued to be cultured to 5˜6 leaves stage of grassy weeds, 6˜7 leaves stage of broadleaf weeds, and treated.
# The well-cultured weeds were evenly placed on a platform with an area of 0.5 m^2, and a solution of agents was sprayed on the stems and leaves thereof by the 3WP-2000-type walking spray tower at a dosage of 450 kg/ha and at a spray pressure of 0.3 MPa. After all the solution was sprayed, the valve was closed. After 30 seconds, the door of the spray tower was opened, and the nutritional bowl was taken out. Then the valve was opened, and the spray tube was cleaned by spraying 50 ml of water.
# A pot-culture method was employed. For the cultivation of weeds, please refer to the Section 1.1), and “Pesticide guidelines for laboratory bioactivity tests—herbicides”. As to a method for applying agents, please refer to the section 2.3.2), that is, a foliage treatment was employed. After the treatment, the weeds were routinely cultured in a greenhouse.
# A method for investigating absolute number was employed, wherein whole seedlings of survival weeds were cut off with a blade along the soil surface, and the fresh weight of the weeds was weighed with an analytical balance. For dead weeds, the fresh weight thereof was zero.
# Table 1-48, 51-98, 101-148, 207-216: The investigation was performed after 24 days of the treatment for only once.
# Echinochloa caudate = conditions: Echinochloa, 576 h, read-out: Control effect (%) of B applied alone in corresponding dose
# How it was run: as §1
# [1] = test system: Echinochloa crusgalli var. zelayensis; conditions: Echinochloa crus-galli, 576 h, read-out: Control effect (%) of B applied alone in corresponding dose
# How it was run: as §1
# Echinochloa oryzoides = conditions: Echinochloa oryzoides, 576 h, read-out: Control effect (%) of B applied alone in corresponding dose
# How it was run: as §1
compound,measurement,setting,value
N#Cc1cc(Br)c(O)c(Br)c1 [bromoxynil],Control effect (%) of B applied alone in corresponding dose,Chenopodium album; bromoxynil 18.75 g a.i./ha,3.1%
same,Control effect (%) of B applied alone in corresponding dose,Chenopodium album; bromoxynil 37.5 g a.i./ha,10.8%
same,Control effect (%) of B applied alone in corresponding dose,Chenopodium album; bromoxynil 75 g a.i./ha,57.7%
same,Control effect (%) of B applied alone in corresponding dose,Chenopodium album; bromoxynil 150 g a.i./ha,83.6%
same,Control effect (%) of B applied alone in corresponding dose,Acalypha australis; B 18.75 g a.i./ha,4.6%
same,Control effect (%) of B applied alone in corresponding dose,Acalypha australis; B 37.5 g a.i./ha,10.6%
same,Control effect (%) of B applied alone in corresponding dose,Acalypha australis; B 75 g a.i./ha,58.9%
same,Control effect (%) of B applied alone in corresponding dose,Acalypha australis; B 150 g a.i./ha,84.0%
O=C(O)COC(=O)c1cc(Oc2ccc(C(F)(F)F)cc2Cl)ccc1[N+](=O)[O-] [fluoroglycofen],Control effect (%) of B applied alone in corresponding dose,"Chenopodium album; Table 92, 0.9375 g a.i./ha",2.3%
same,Control effect (%) of B applied alone in corresponding dose,"Chenopodium album; Table 92, 1.875 g a.i./ha",12.8%
same,Control effect (%) of B applied alone in corresponding dose,"Chenopodium album; Table 92, 3.75 g a.i./ha",40.0%
same,Control effect (%) of B applied alone in corresponding dose,"Chenopodium album; Table 92, 7.5 g a.i./ha",70.6%
same,Control effect (%) of B applied alone in corresponding dose,Acalypha australis; B 0.9375 g a.i./ha,4.0%
same,Control effect (%) of B applied alone in corresponding dose,Acalypha australis; B 1.875 g a.i./ha,15.7%
same,Control effect (%) of B applied alone in corresponding dose,Acalypha australis; B 3.75 g a.i./ha,41.6%
same,Control effect (%) of B applied alone in corresponding dose,Acalypha australis; B 7.5 g a.i./ha,71.4%
CS(=O)(=O)NC(=O)c1cc(Oc2ccc(C(F)(F)F)cc2Cl)ccc1[N+](=O)[O-] [fomesafen],Control effect (%) of B applied alone in corresponding dose,"Chenopodium album; Table 91, 22.5 g a.i./ha",2.7%
same,Control effect (%) of B applied alone in corresponding dose,"Chenopodium album; Table 91, 45 g a.i./ha",18.6%
same,Control effect (%) of B applied alone in corresponding dose,"Chenopodium album; Table 91, 90 g a.i./ha",45.4%
same,Control effect (%) of B applied alone in corresponding dose,"Chenopodium album; Table 91, 180 g a.i./ha",81.9%
same,Control effect (%) of B applied alone in corresponding dose,Acalypha australis; B 22.5 g a.i./ha,6.4%
same,Control effect (%) of B applied alone in corresponding dose,Acalypha australis; B 45 g a.i./ha,12.6%
same,Control effect (%) of B applied alone in corresponding dose,Acalypha australis; B 90 g a.i./ha,46.9%
same,Control effect (%) of B applied alone in corresponding dose,Acalypha australis; B 180 g a.i./ha,82.4%
CCOC(=O)C(C)OC(=O)c1cc(Oc2ccc(C(F)(F)F)cc2Cl)ccc1[N+](=O)[O-] (stereo not shown) [lactofen],Control effect (%) of B applied alone in corresponding dose,"Chenopodium album; Table 94, 7.5 g a.i./ha",3.3%
same,Control effect (%) of B applied alone in corresponding dose,"Chenopodium album; Table 94, 15 g a.i./ha",10.4%
same,Control effect (%) of B applied alone in corresponding dose,"Chenopodium album; Table 94, 30 g a.i./ha",39.7%
same,Control effect (%) of B applied alone in corresponding dose,"Chenopodium album; Table 94, 60 g a.i./ha",65.4%
same,Control effect (%) of B applied alone in corresponding dose,Acalypha australis; B 7.5 g a.i./ha,2.7%
same,Control effect (%) of B applied alone in corresponding dose,Acalypha australis; B 15 g a.i./ha,13.5%
same,Control effect (%) of B applied alone in corresponding dose,Acalypha australis; B 30 g a.i./ha,41.4%
same,Control effect (%) of B applied alone in corresponding dose,Acalypha australis; B 60 g a.i./ha,66.4%
CCOc1cc(Oc2ccc(C(F)(F)F)cc2Cl)ccc1[N+](=O)[O-] [oxyfluorfen],Control effect (%) of B applied alone in corresponding dose,"Chenopodium album; Table 93, 7.5 g a.i./ha",3.6%
same,Control effect (%) of B applied alone in corresponding dose,"Chenopodium album; Table 93, 15 g a.i./ha",11.9%
same,Control effect (%) of B applied alone in corresponding dose,"Chenopodium album; Table 93, 30 g a.i./ha",30.7%
same,Control effect (%) of B applied alone in corresponding dose,"Chenopodium album; Table 93, 60 g a.i./ha",68.1%
same,Control effect (%) of B applied alone in corresponding dose,Acalypha australis; B 7.5 g a.i./ha,4.6%
same,Control effect (%) of B applied alone in corresponding dose,Acalypha australis; B 15 g a.i./ha,12.4%
same,Control effect (%) of B applied alone in corresponding dose,Acalypha australis; B 30 g a.i./ha,32.7%
same,Control effect (%) of B applied alone in corresponding dose,Acalypha australis; B 60 g a.i./ha,68.9%
CCS(=O)(=O)c1cccnc1S(=O)(=O)NC(=O)Nc1nc(OC)cc(OC)n1 [rimsulfuron],pest or weed control at 1.875 g/ha,Echinochloa caudate; rimsulfuron 1.875 g a.i./ha,5.5%
same,pest or weed control at 3.75 g/ha,Echinochloa caudate; rimsulfuron 3.75 g a.i./ha,25.3%
same,pest or weed control at 7.5 g/ha,Echinochloa caudate; rimsulfuron 7.5 g a.i./ha,37.9%
same,pest or weed control at 15 g/ha,Echinochloa caudate; rimsulfuron 15 g a.i./ha,65.8%
same,pest or weed control at 1.875 g/ha,"[1]; foliar, B 1.875 g a.i./ha, foliage spray, 24 days",7.7%
same,pest or weed control at 3.75 g/ha,"[1]; foliar, B 3.75 g a.i./ha, foliage spray, 24 days",25.5%
same,pest or weed control at 7.5 g/ha,"[1]; foliar, B 7.5 g a.i./ha, foliage spray, 24 days",39.7%
same,pest or weed control at 15 g/ha,"[1]; foliar, B 15 g a.i./ha, foliage spray, 24 days",67.7%
same,pest or weed control at 1.875 g/ha,"Echinochloa oryzoides; Table 106, 1.875 g a.i./ha",10.3%
same,pest or weed control at 3.75 g/ha,"Echinochloa oryzoides; Table 106, 3.75 g a.i./ha",26.9%
same,pest or weed control at 7.5 g/ha,"Echinochloa oryzoides; Table 106, 7.5 g a.i./ha",43.7%
same,pest or weed control at 15 g/ha,"Echinochloa oryzoides; Table 106, 15 g a.i./ha",69.6%
Cc1nn(-c2cc(NS(C)(=O)=O)c(Cl)cc2Cl)c(=O)n1C(F)F [sulfentrazone],pest or weed control at 1.875 g/ha,"Echinochloa caudate; Table 97, 1.875 g a.i./ha",6.6%
same,pest or weed control at 3.75 g/ha,"Echinochloa caudate; Table 97, 3.75 g a.i./ha",10.8%
same,pest or weed control at 7.5 g/ha,"Echinochloa caudate; Table 97, 7.5 g a.i./ha",24.5%
same,pest or weed control at 15 g/ha,"Echinochloa caudate; Table 97, 15 g a.i./ha",52.6%
same,pest or weed control at 1.875 g/ha,[1]; sulfentrazone 1.875 g a.i./ha,2.8%
same,pest or weed control at 3.75 g/ha,[1]; sulfentrazone 3.75 g a.i./ha,15.4%
same,pest or weed control at 7.5 g/ha,[1]; sulfentrazone 7.5 g a.i./ha,26.9%
same,pest or weed control at 15 g/ha,[1]; sulfentrazone 15 g a.i./ha,54.1%
same,pest or weed control at 1.875 g/ha,Echinochloa oryzoides; B 1.875 g a.i./ha,5.8%
same,pest or weed control at 3.75 g/ha,Echinochloa oryzoides; B 3.75 g a.i./ha,18.1%
same,pest or weed control at 7.5 g/ha,Echinochloa oryzoides; B 7.5 g a.i./ha,29.7%
same,pest or weed control at 15 g/ha,Echinochloa oryzoides; B 15 g a.i./ha,56.1%
